Assay results reported in patent US5100879A, “Method of topically cleansing the human body” (K.K. Ueno Seiyaku Oyo Kenkyujo, priority 1987, dated 1992).
Like-named read-outs stand apart in the source and are kept apart here.

Key:
[1] = system: disrupted HTLV-III virions as a crude reverse transcriptase; assay: Inhibition of reverse transcriptase activity (HTLV-III), Example 2; format: biochemical; settings: FIG. 8
HTLV-III = assay: Anti-AIDS activity, infected cell rate of MT-4 cells infected with HTLV-III at the 6th day (Example 9); format: cell-based; settings: 6th day, control without test substance 100%
Description: To MT-4 cells (30×10^4 /ml) cultured in RPMI-1640 medium containing 10% bovine serum, was inoculated HTLV-III, and the suspension was incubated at 37° C. for 1 hour to cause the adsorption of the virus. The cell:virus ratio was 500:1. The cells were then washed, and cultured with or without various doses of the test substances (same as those of Example 1) at 37° C. under 5% CO2 for 3 days, after which cell growth, viability, and percentage of infected cells were recorded. The infected cells were distinguished from the uninfected cells by an indirect immuno-fluorescence method. Thus, the cultured cells were fixed with cold methanol on a slide glass, reacted with antibody to the HTLV-III-specific antigens, and further with the secondary antibody (having a fluororescent label). The results are shown in FIGS. 9-29, wherein, .gradient., .increment. and .quadrature. show the controls without virus, and show the infection experiments with HTLV-III. The cell growth is indicated in number of cells, the viability (%) in number of viable cells ×100/number of total cells, and the infected cell rate (%) in number of fluorescent-positive cells x 100/number of total cells.
In order to examine the correlation between the anti-AIDS virus activity and the molecular structure (especially, molecular weight and S-content or number of sulfate group in this case) of various test substances including those used in Examples 1-7, the anti-AIDS activities were evaluated for the various naturally occurring polysaccharides, polysaccharides having a sulfate group, mucopolysaccharides, mucopolysaccharide sulfate, and mucopolysaccharide polysulfate. Further, similar experiments were carried out with various other sulfates which were synthetically obtained. The experimental procedures employed are identical to that in the preceding experiments. The cultured MT-4 cells were infected with HTLV-III and the inhibitory effects of various test substances on the infected cell rate (number of fluorescent cell×100/ total cell, %) were determined at the 6th day.

MT-4 cells = assay: Cytotoxicity, MT-4 cells cultured without virus (Examples 4 and 8); format: cell-based, human; settings: 1 μg/ml, without virus; 0 μg/ml gives 87
Excerpt: The cell:virus ratio was 500:1. […] The infected cells were distinguished from the uninfected cells by an indirect immuno-fluorescence method. Thus, the cultured cells were fixed with cold methanol on a slide glass, reacted with antibody to the HTLV-III-specific antigens, and further with the secondary antibody (having a fluororescent label). […] The cell growth is indicated in number of cells, the viability (%) in number of viable cells ×100/number of total cells, and the infected cell rate (%) in number of fluorescent-positive cells x 100/number of total cells.

[2] = system: Friend leukemia virus (F-MuLV); assay: Anti-Friend leukemia virus activity, XC-plaque assay, Procedure 1; format: cell-based; settings: for Number of plaques per dish: control 168
Description: (§1) Anti-FMuLV activity of dextran sulfate (molecular weight: 7000-8000, S-content: 17-20%) was determined by a XC-plaque assay method. BALB3T3 cells were cultured in adhesive form in a 35 mm-dish at 5×10^4 cells/dish (2 ml). After removing the culture medium, a fresh medium with or without indicated concentrations of the test substance (1 ml each) and 0.2 ml of the virus preparation were charged, and the cells were cultured overnight. On the following day, the culture media were replaced with those (2 ml) containing or not containing the above substances, the incubation was continued for three additional days to progress the infection and replication of the virus. After the removal of the medium, the further progression of viral replication was stopped by UV irradiation. To this dish, the suspension of XC-cells (2 ml) was added and cultured for three days and the plaque formation produced by the virus particle induced cell-fusion, was observed.

[3] = system: Friend leukemia virus (F-MuLV); assay: Anti-Friend leukemia virus activity, XC-plaque assay, Procedure 2; format: cell-based; settings: for Number of plaques per dish: control 35
Description: as §1
Procedure 1 was repeated except that after adsorption of the virus in the medium without DS, the non-adsorbed viruses were removed and the culture was carried out in the medium (2 ml) containing or not containing DS.

mice = settings: cited from earlier work

With “dextran sulfate [Dextran sulfate 7,000-8,000]” the “inhibitory effect against the reverse transcriptase derived from HTLV-III” value [1] was “has an inhibitory effect”, the “Infected cell (%)” value (HTLV-III; 10 μg/ml) was 1% and the “Infected cell (%)” value (HTLV-III; 100 μg/ml) was 0%. For the same substance, the Viability (MT-4 cells) was 90%, the “Inhibition (%)” value ([2]; Procedure 1, 1 μg/ml) was 92% and the “Number of plaques per dish” value ([2]; Procedure 1, 1 μg/ml) was 14 per dish. For the same substance, the “Inhibition (%)” value ([2]; Procedure 1, 5 μg/ml) was 93%, the “Number of plaques per dish” value ([2]; Procedure 1, 5 μg/ml) was 12 per dish and the “Inhibition (%)” value ([2]; Procedure 1, 10 μg/ml) was 93%. The “Number of plaques per dish” value ([2]; Procedure 1, 10 μg/ml) was 11 per dish, the “Inhibition (%)” value ([2]; Procedure 1, 50 μg/ml) was 92% and the “Number of plaques per dish” value ([2]; Procedure 1, 50 μg/ml) was 13 per dish. For the same substance, the “Inhibition (%)” value ([2]; Procedure 1, 100 μg/ml) was 96%, the “Number of plaques per dish” value ([2]; Procedure 1, 100 μg/ml) was 6 per dish and the “Inhibition (%)” value ([2]; Procedure 1, 1000 μg/ml) was 100%. The “inhibition of the formation of plaque” value ([2]; Procedure 1, concentrations of 1-100 μg/ml) was ≥ 90%, the “Inhibition (%)” value ([3]; Procedure 2, 0.01 μg/ml) was 6% and the “Number of plaques per dish” value ([3]; Procedure 2, 0.01 μg/ml) was 33 per dish. The “Inhibition (%)” value ([3]; Procedure 2, 0.1 μg/ml) was 45%, the “Number of plaques per dish” value ([3]; Procedure 2, 0.1 μg/ml) was 19 per dish and the “Number of plaques per dish” value ([3]; Procedure 2, 1 μg/ml) was 14 per dish. For the same substance, the “Inhibition (%)” value ([3]; Procedure 2, 10 μg/ml) was 52%, the “Number of plaques per dish” value ([3]; Procedure 2, 10 μg/ml) was 17 per dish and the “Inhibition (%)” value ([3]; Procedure 2, 100 μg/ml) was 54%. For the same substance, the “Number of plaques per dish” value ([3]; Procedure 2, 100 μg/ml) was 16 per dish, the “Number of plaques per dish” value ([3]; Procedure 2, 500 μg/ml) was 0 per dish and the “acute toxicity (LD50)” value (mice; intravenously) was 4,500 mg/kg. The “acute toxicity (LD50)” value (mice; orally) was 21,000 mg/kg.
